Laboratory results taken from US8969390B2, “Composition containing sorbitan monocaprylate and antimicrobial substances” (Clariant Finance (BVI) Limited, priority 2009, dated 2015).

How the values were obtained:
[1] = test system: Pseudomonas aeruginosa, Staphylococcus aureus, Candida albicans and Aspergillus brasiliensis; experiment: Challenge test according to Ph. Eur. Chapter 5.1.3, overall preservation (all test organisms); type: cell-based; conditions: formulation A (cream)
Experimental: (§1) The following examples show results of challenge tests that were carried out according to the requirements of Ph. Eur. Chapter 5.1.3. The following test organisms are used here as representatives for microorganisms: Pseudomonas aeruginosa (gram-negative; abbreviated below as “P. a.”), Staphylococcus aureus (gram-positive; abbreviated below as “St. a.”), Candida albicans (yeast fungus; abbreviated below as “C. a.”) and Aspergillus brasiliensis (mold fungus; abbreviated below as “A. b.”). In a challenge test, a cosmetic, dermatological or pharmaceutical formulation is accurately considered as adequately preserved if all four test organisms are passed at least with a B criterion. An A criterion means an outstanding preservation, a B criterion, means an adequate preservation and with an F criterion the test is considered overall as not passed. As a comparison, an unpreserved sample of the respective formulation is additionally tested. The further abbreviations SC=sorbitan monocaprylate, Octopirox®=piroctone olamine apply below.
(§2) The assignment of the A, B and F criteria is directed by the level of the microorganism count reduction within a fixed time interval, in which only the logarithmic reduction is considered.

Aspergillus brasiliensis = experiment: Challenge test according to Ph. Eur. Chapter 5.1.3, Aspergillus brasiliensis; type: cell-based; conditions: formulation B (shampoo), use concentration 0.05% piroctone olamine
Experimental: as §1, §2

Compound	adequate preservation of formulation A ([1]; 0.4% benzoic acid as individual antimicrobial active ingredient)	protection of formulation B against growth of mold fungi (Aspergillus brasiliensis)	adequate preservation of formulation A ([1]; use concentration 0.05% piroctone olamine)
O=C(O)c1ccccc1 [Benzoic acid, benzoic acid, reference compound]	does not suffice	–	–
Cc1cc(CC(C)CC(C)(C)C)n(O)c(=O)c1.NCCO (stereo not drawn) [Octopirox ®, piroctone olamine]	–	cannot adequately protect	cannot be preserved adequately
